The test has as its system BDF1 mice, P388 leukemia ip, median survival T/C. The experiment in a line: NCI In Vivo Anticancer Drug Screen. Data for tumor model P388 Leukemia (intraperitoneal) in B6D2F1 (BDF1) mice. Particulars: endpoint: median survival time, higher = longer survival. The method, boiled down:
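Transplantable tumour in mice; compound vs vehicle dosing; survival scored; ratio of treated to control reported.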

Setting [1] is: dose: 75.0 mg/kg/injection, schedule: Q04DX003 (ip), vehicle: saline with Tween-80.
The mark [2] stands for this setting: dose: 12.5 mg/kg/injection, schedule: Q01DX009 (ip), vehicle: saline.
Setting [3] is: dose: 100.0 mg/kg/injection, schedule: Q01DX001 (ip), vehicle: Klucel (hydroxypropylcellulose) (HPC).
Setting [4] is: dose: 200.0 mg/kg/injection, schedule: Q01DX001 (ip), vehicle: Klucel (hydroxypropylcellulose) (HPC).
The mark [5] stands for this setting: dose: 400.0 mg/kg/injection, schedule: Q01DX001 (ip), vehicle: Klucel (hydroxypropylcellulose) (HPC).
Where [6] appears, read: dose: 100.0 mg/kg/injection, schedule: Q04DX003 (ip), vehicle: saline sonified.
Where [7] appears, read: dose: 200.0 mg/kg/injection, schedule: Q04DX003 (ip), vehicle: saline sonified.

Molecules are shown by their SMILES. “And” between values parts separate entries of the source, which are not always exact repeats. Identical values can stand only once. Toxic doses and inconclusive results are not listed.

Take `CCCCC(=O)N(c1ccc(Nc2c3ccccc3nc3cc([N+](=O)[O-])ccc23)cc1)S(C)(=O)=O`: the T/C runs as follows: (dose: 0.44 mg/kg/injection, schedule: Q01DX009 (ip), vehicle: saline with Tween-80) 167 % of control; (dose: 0.66 mg/kg/injection, schedule: Q01DX009 (ip), vehicle: saline with Tween-80) 180 % of control; (dose: 1.0 mg/kg/injection, schedule: Q01DX009 (ip), vehicle: saline with Tween-80) 194 % of control; (dose: 1.5 mg/kg/injection, schedule: Q01DX009 (ip), vehicle: saline with Tween-80) 205 % of control; (dose: 2.2 mg/kg/injection, schedule: Q04DX003 (ip), vehicle: saline with Tween-80) 154 % of control; (dose: 3.3 mg/kg/injection, schedule: Q04DX003 (ip), vehicle: saline with Tween-80) 150 % of control. Moreover, the T/C is, setting by setting: (dose: 5.0 mg/kg/injection, schedule: Q04DX003 (ip), vehicle: saline with Tween-80) 186 % of control; (dose: 12.5 mg/kg/injection, schedule: Q04DX003 (ip), vehicle: saline with Tween-80) 218 % of control; (dose: 22.0 mg/kg/injection, schedule: Q04DX003 (ip), vehicle: saline with Tween-80) 250 % of control; (dose: 25.0 mg/kg/injection, schedule: Q04DX003 (ip), vehicle: saline with Tween-80) 245 % of control; (dose: 33.0 mg/kg/injection, schedule: Q04DX003 (ip), vehicle: saline with Tween-80) 175 % of control and 209 % of control; (dose: 50.0 mg/kg/injection, schedule: Q04DX003 (ip), vehicle: saline with Tween-80) 225 % of control and 272 % of control and 181 % of control. Further, under setting [1], the T/C is 109 % of control and 204 % of control.

As for `O=C(O)/C=C\c1c[nH]c2nccnc12`, the T/C by setting is: under setting [2], 103 % of control; (dose: 25.0 mg/kg/injection, schedule: Q01DX009 (ip), vehicle: saline) 95 % of control; (dose: 25.0 mg/kg/injection, schedule: Q04DX003 (ip), vehicle: saline) 97 % of control; (dose: 50.0 mg/kg/injection, schedule: Q01DX009 (ip), vehicle: saline) 95 % of control; (dose: 50.0 mg/kg/injection, schedule: Q04DX003 (ip), vehicle: saline) 100 % of control.

For the compound `c1cc2cnc3cccc4cnc(c1)c2c43`, the T/C runs as follows: (dose: 100.0 mg/kg/injection, schedule: Q01DX001 (ip), vehicle: saline sonified) 100 % of control; (dose: 400.0 mg/kg/injection, schedule: Q01DX001 (ip), vehicle: saline sonified) 100 % of control.

With `C[C@@H]1C[C@@]2(O[C@@H]2C)C(=O)O[C@@H]2CCN3CC=C(COC(=O)[C@]1(C)O)[C@H]23`, the T/C is, setting by setting: (dose: 20.0 mg/kg/injection, schedule: Q01DX010 (ip), vehicle: carboxymethylcellulose (CMC)) 110 % of control; (dose: 40.0 mg/kg/injection, schedule: Q01DX010 (ip), vehicle: carboxymethylcellulose (CMC)) 100 % of control.

Regarding `CC(C)CCCC(C)C1CCC2C3CCC45CC4C(=O)CCC5(C)C3CCC12C` (centres undefined), the T/C is 115 % of control (dose: 100.0 mg/kg/injection, schedule: Q04DX003 (ip), vehicle: alcohol); 100 % of control (dose: 200.0 mg/kg/injection, schedule: Q04DX003 (ip), vehicle: alcohol); 100 % of control (dose: 400.0 mg/kg/injection, schedule: Q04DX003 (ip), vehicle: alcohol).

With `CCOC1=C(C#N)CC2(CC1)c1ccccc1-c1ccccc12`, the T/C was 95 % of control (dose: 100.0 mg/kg/injection, schedule: Q04DX003 (ip), vehicle: saline with Tween-80); 95 % of control (dose: 200.0 mg/kg/injection, schedule: Q04DX003 (ip), vehicle: saline with Tween-80); 91 % of control (dose: 400.0 mg/kg/injection, schedule: Q04DX003 (ip), vehicle: saline with Tween-80).

For the compound `COC(=O)c1ccc(OCCOc2ccc(C(C)(C)CC(C)(C)C)cc2)c(N)c1`, the T/C runs as follows: under setting [3], 95 % of control; under setting [4], 104 % of control; under setting [5], 100 % of control.

Take `C/C(=N\O)c1ccc2ccc3ccccc3c2c1`: the T/C was 104 % of control (dose: 50.0 mg/kg/injection, schedule: Q04DX003 (ip), vehicle: saline sonified); 104 % of control under setting [6]; 100 % of control under setting [7].

Turning to `CCOC(=O)c1cn(COC)c2nc(SC)nc(NC(C)=O)c2c1=O`, the T/C by setting is: (dose: 100.0 mg/kg/injection, schedule: Q01DX001 (ip), vehicle: saline with Tween-80) 105 % of control; (dose: 200.0 mg/kg/injection, schedule: Q01DX001 (ip), vehicle: saline with Tween-80) 90 % of control; (dose: 400.0 mg/kg/injection, schedule: Q01DX001 (ip), vehicle: saline with Tween-80) 90 % of control.

Consider `CC(=O)CC(=O)c1ccccc1.CC(=O)CC(=O)c1ccccc1.CC(=O)CC(=O)c1ccccc1.[Co]`, for which the T/C (dose: 10.0 mg/kg/injection, schedule: Q01DX001 (ip), vehicle: Klucel (hydroxypropylcellulose) (HPC)) was 90 % of control; the T/C (dose: 10.0 mg/kg/injection, schedule: Q04DX003 (ip), vehicle: Klucel (hydroxypropylcellulose) (HPC)) was 104 % of control; the T/C (dose: 20.0 mg/kg/injection, schedule: Q01DX001 (ip), vehicle: Klucel (hydroxypropylcellulose) (HPC)) was 104 % of control; the T/C (dose: 20.0 mg/kg/injection, schedule: Q04DX003 (ip), vehicle: Klucel (hydroxypropylcellulose) (HPC)) was 104 % of control; the T/C (dose: 40.0 mg/kg/injection, schedule: Q01DX001 (ip), vehicle: Klucel (hydroxypropylcellulose) (HPC)) is 104 % of control; the T/C (dose: 40.0 mg/kg/injection, schedule: Q04DX003 (ip), vehicle: Klucel (hydroxypropylcellulose) (HPC)) was 100 % of control.

Take `Cc1cccc(NC(=O)CCc2ccc(N3C(N)=NC(N)=NC3(C)C)cc2)c1`: the T/C was 111 % of control (dose: 58.0 mg/kg/injection, schedule: Q01DX009 (ip), vehicle: saline with Tween-80); 119 % of control (dose: 88.0 mg/kg/injection, schedule: Q01DX009 (ip), vehicle: saline with Tween-80); 119 % of control and 122 % of control (dose: 132.0 mg/kg/injection, schedule: Q01DX009 (ip), vehicle: saline with Tween-80).

As to `CCOC(=O)NC1=C(N2CC2C)C(=O)C(NC(=O)OCC)=C(N2CC2C)C1=O` (centres undefined), the T/C is 123 % of control (dose: 3.12 mg/kg/injection, schedule: Q01DX001 (ip), vehicle: Klucel (hydroxypropylcellulose) (HPC)) and 113 % of control (dose: 12.5 mg/kg/injection, schedule: Q01DX001 (ip), vehicle: Klucel (hydroxypropylcellulose) (HPC)).

Turning to `C[N+](C)=C1C=CC(=C2C=CSC=C2)C=C1`, the T/C (dose: 1.56 mg/kg/injection, schedule: Q01DX009 (ip), vehicle: saline) was 117 % of control; the T/C (dose: 3.12 mg/kg/injection, schedule: Q01DX009 (ip), vehicle: saline) was 124 % of control; the T/C (dose: 6.25 mg/kg/injection, schedule: Q01DX009 (ip), vehicle: saline) is 123 % of control; the T/C under setting [2] is 100 % of control.

As to `c1ccc2nc(-c3cc4ccccc4s3)ccc2c1`, the T/C under setting [6] was 104 % of control; the T/C under setting [7] was 95 % of control; the T/C (dose: 400.0 mg/kg/injection, schedule: Q04DX003 (ip), vehicle: saline sonified) was 118 % of control.

On to `CC(=O)OCC(=O)[C@@]1(O)CC[C@H]2[C@@H]3CCC4=CC(=O)CC[C@]4(C)[C@@]3(Cl)[C@@H](O)C[C@@]21C`, for which the T/C (dose: 18.7 mg/kg/injection, schedule: Q04DX003 (ip), vehicle: saline with Tween-80) is 109 % of control; the T/C (dose: 37.5 mg/kg/injection, schedule: Q04DX003 (ip), vehicle: saline with Tween-80) is 109 % of control; the T/C (dose: 66.0 mg/kg/injection, schedule: Q04DX003 (ip), vehicle: saline with Tween-80) is 113 % of control; the T/C under setting [1] was 118 % of control; the T/C (dose: 150.0 mg/kg/injection, schedule: Q04DX003 (ip), vehicle: saline with Tween-80) is 118 % of control.

Turning to `CCCCCCCSCCSCCSCCCCCCC`, the T/C is 100 % of control under setting [3], 100 % of control under setting [4] and 100 % of control under setting [5].

Consider `CC(=O)C(C)[P+](c1ccccc1)(c1ccccc1)c1ccccc1` (centres undefined), for which the T/C is 95 % of control (dose: 2.0 mg/kg/injection, schedule: Q01DX009 (ip), vehicle: water); 100 % of control (dose: 4.0 mg/kg/injection, schedule: Q01DX009 (ip), vehicle: water); 93 % of control (dose: 8.0 mg/kg/injection, schedule: Q01DX009 (ip), vehicle: water); 96 % of control (dose: 12.5 mg/kg/injection, schedule: Q01DX009 (ip), vehicle: water); 103 % of control (dose: 16.0 mg/kg/injection, schedule: Q01DX009 (ip), vehicle: water); 91 % of control (dose: 25.0 mg/kg/injection, schedule: Q01DX009 (ip), vehicle: water).
